Data reported in the supplement of paper PMC10307832.

Columns and labels:
Experiment in all cases: relative viability (nuclei count vs DMSO), 5 days (fraction); higher = more cells survive
XMD8-85 + Vorinostat = compound: CN1CCN(CC1)C2=CC(=C(C=C2)NC3=NC=C4C(=N3)N(C5=CC=CC=C5C(=O)N4C)C)OC [XMD8-85] + O=C(CCCCCCC(=O)Nc1ccccc1)NO [Vorinostat] (partner 1 µM)
How it was run: (§1)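 Values are medians from duplicate plates. Each reflects relative viability, defined as the nuclei count of treated wells over that of vehicle wells. Lung cancer cell lines in 1536-well plates were pin-tool dosed one day after seeding with one drug alone or with a fixed anchor-drug dose plus five library-drug doses (not always all listed) in √10 steps, then fixed, stained and imaged at 4× after 5 days.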

4EGI-1 + Luminespib = compound: O=C(O)C(Cc1ccccc1[N+](=O)[O-])=NNc1nc(-c2ccc(Cl)c(Cl)c2)cs1 (mixture of isomers) [4EGI-1] + CCNC(=O)c1noc(-c2cc(C(C)C)c(O)cc2O)c1-c1ccc(CN2CCOCC2)cc1 [Luminespib] (partner 0.01 µM)
How it was run: as §1

4EGI-1 + Tozasertib = compound: O=C(O)C(Cc1ccccc1[N+](=O)[O-])=NNc1nc(-c2ccc(Cl)c(Cl)c2)cs1 (mixture of isomers) [4EGI-1] + Cc1cc(Nc2cc(N3CCN(C)CC3)nc(Sc3ccc(NC(=O)C4CC4)cc3)n2)n[nH]1 [Tozasertib] (partner 0.1 µM)
How it was run: as §1

4EGI-1 + Olaparib = compound: O=C(O)C(Cc1ccccc1[N+](=O)[O-])=NNc1nc(-c2ccc(Cl)c(Cl)c2)cs1 (mixture of isomers) [4EGI-1] + O=C(c1cc(Cc2n[nH]c(=O)c3ccccc23)ccc1F)N1CCN(C(=O)C2CC2)CC1 [Olaparib] (partner 8 µM)
How it was run: as §1

Cell Line | relative viability (XMD8-85 + Vorinostat; first compound 0.08 µM) | relative viability (XMD8-85 + Vorinostat; first compound 0.253 µM) | relative viability (XMD8-85 + Vorinostat; first compound 2.53 µM) | relative viability (XMD8-85 + Vorinostat; first compound 8 µM) | relative viability (4EGI-1 + Luminespib; first compound 0.5 µM) | relative viability (4EGI-1 + Luminespib; first compound 1.581 µM) | relative viability (4EGI-1 + Luminespib; first compound 5 µM) | relative viability (4EGI-1 + Luminespib; first compound 15.81 µM) | relative viability (4EGI-1 + Luminespib; first compound 50 µM) | relative viability (4EGI-1 + Tozasertib; first compound 0.5 µM) | relative viability (4EGI-1 + Tozasertib; first compound 1.581 µM) | relative viability (4EGI-1 + Tozasertib; first compound 5 µM) | relative viability (4EGI-1 + Tozasertib; first compound 15.81 µM) | relative viability (4EGI-1 + Tozasertib; first compound 50 µM) | relative viability (4EGI-1 + Olaparib; first compound 0.5 µM) | relative viability (4EGI-1 + Olaparib; first compound 1.581 µM) | relative viability (4EGI-1 + Olaparib; first compound 5 µM) | relative viability (4EGI-1 + Olaparib; first compound 15.81 µM) | relative viability (4EGI-1 + Olaparib; first compound 50 µM) | relative viability (XMD8-85 + Vorinostat; first compound 0.8 µM)
NCI-H520 | 0.774 | 0.69 | 0.673 | 0.331 | 0.231 | 0.241 | 0.184 | 0.256 | 0.205 | 0.47 | 0.496 | 0.499 | 0.385 | 0.371 | 0.375 | 0.329 | 0.458 | 0.265 | 0.13 | –
NCI-H522 | 0.936 | 0.877 | 0.884 | 0.654 | 1.18 | 0.612 | 1.13 | 1.33 | 0.711 | 0.558 | 0.491 | 0.595 | 0.558 | 0.457 | 0.694 | 0.776 | 0.617 | 0.574 | 0.471 | 0.918
NCI-H596 | 0.517 | 0.559 | 0.53 | 0.361 | 1.02 | 0.955 | 1.03 | 1.07 | 0.508 | 1.01 | 0.769 | 0.987 | 0.949 | 0.783 | 0.726 | 0.664 | 0.786 | 0.568 | 0.464 | 0.495
NCI-H647 | 0.573 | 0.746 | 0.632 | 0.346 | 0.227 | – | 0.149 | 0.137 | 0.141 | 0.262 | – | 0.35 | 0.199 | 0.133 | 0.515 | 0.42 | 0.469 | 0.129 | 0.0662 | 0.673
NCI-H650 | 0.447 | 0.388 | 0.465 | 0.295 | 0.825 | – | 0.878 | 0.646 | 0.784 | 0.858 | – | 0.777 | 0.644 | 0.626 | 0.439 | – | 0.414 | 0.404 | 0.288 | 0.433
NCI-H661 | 0.835 | 0.788 | 0.743 | 0.588 | 0.883 | 0.76 | 0.798 | 0.606 | 0.505 | 0.336 | 0.34 | 0.34 | 0.355 | 0.283 | 0.765 | 0.637 | 0.584 | 0.454 | 0.336 | 0.809
NCI-H727 | 1.09 | 1.23 | 1.24 | 0.984 | 0.506 | 0.381 | 0.273 | 0.449 | 0.429 | 0.595 | 0.765 | 0.502 | 0.499 | 0.585 | 0.638 | 0.679 | 0.717 | 0.496 | 0.592 | 1.17
NCI-H838 | 0.729 | 0.739 | 0.641 | 0.409 | 0.335 | – | 0.226 | 0.229 | 0.144 | 0.261 | – | 0.263 | 0.235 | 0.172 | 0.752 | 0.752 | 0.677 | 0.372 | 0.161 | 0.706
NCI-H1355 | 0.682 | 0.564 | 0.655 | 0.545 | 0.708 | 0.706 | 0.762 | 0.445 | 0.326 | 0.551 | 0.551 | 0.559 | 0.429 | 0.291 | 0.86 | 0.742 | 0.795 | 0.469 | 0.334 | 0.642
NCI-H1395 | 0.556 | 0.668 | 0.887 | 0.406 | 0.717 | 0.436 | 0.766 | 0.789 | 0.496 | 0.868 | 0.637 | 0.764 | 0.711 | 0.477 | 0.492 | – | 0.47 | 0.457 | 0.394 | 0.739
NCI-H1437 | 0.93 | 0.879 | 0.751 | 0.482 | 1.19 | 1.05 | 1.15 | 0.862 | 0.457 | 0.416 | 0.378 | 0.399 | 0.318 | 0.175 | 0.655 | 0.625 | 0.589 | 0.395 | 0.194 | 0.94
NCI-H1650 | 0.674 | 0.596 | 0.578 | 0.253 | 0.197 | – | 0.19 | 0.203 | 0.221 | 0.474 | – | 0.413 | 0.327 | 0.267 | 0.757 | – | 0.803 | 0.537 | 0.214 | 0.594
NCI-H1651 | 0.602 | 0.562 | 0.546 | 0.449 | 0.975 | 0.658 | 1.01 | 0.933 | 0.924 | 0.704 | 0.518 | 0.678 | 0.383 | 0.372 | 0.186 | 0.176 | 0.185 | 0.189 | 0.151 | 0.5
NCI-H1666 | 1.13 | 1.03 | 0.947 | 0.92 | 1.1 | 0.982 | 1.04 | 0.812 | 0.397 | 0.61 | 0.535 | 0.647 | 0.448 | 0.328 | 0.74 | 0.727 | 0.778 | 0.622 | 0.488 | 0.996
